# Test results as given in PMC13598332, “Selective activation of tetrodotoxin-sensitive sodium channels by AaH-II drives arrhythmogenic late Na^+ current in the heart” (Europace, 2026).
# “Also recorded” adds a separate entry of the source.
# Experiments:
# hNav1.6 = hNav1.6 (Homo sapiens, UniProt Q9UQD0); assay type: cell-based
# [1] = tested on: human iPS-derived cardiomyocytes; test: Automated patch-clamp of Na+ current in human iPS-derived cardiomyocytes; assay type: cell-based
# Protocol: The control hiPSC cell line (ITXi002-A; IRX5-Wt[16]; RRID:CVCL_B5QD) was generated from primary dermal fibroblasts and previously characterized.[17–19] hiPSCs were maintained at 37°C, 5% CO2, 21% O2 in StemMacs PSC-Brew XF human medium (Miltenyi Biotec, #130-127-865) on culture plates coated with 0.05 mg/mL Matrigel hESC-Qualified Matrix (Corning, #354277) in DMEM F12 (Gibco, #11320033). At 75% confluency, the cells were passaged using the Gentle Cell Dissociation Reagent (StemCell Technologies, #07174).
# We generated right ventricular-like cardioids on 96-well low-attachment plates using the Schmidt et al. (2023) protocol.[20] At D15.5, cardioids were pooled, dissociated, and replated as a monolayer in MW12 plates (Falcon, #353047) coated with Matrigel (Corning, #354277) for automated patch-clamp, and as single cells in 35-mm Petri dishes (NUNC #055055) coated with Matrigel for manual patch-clamp. Immediately before patch-clamp recording, cardiomyocytes were single-cell dissociated using Accutase (Sigma, #A6964).
# For human iPSC-derived cardiomyocytes recordings, cells were resuspended at 300 000 cells/mL in a solution composed of 50% culture media and 50% extracellular buffer containing (in mM) 140 NaCl, 4 KCl, 2 CaCl2, 1 MgCl2, 5 glucose, and 10 HEPES (pH 7.4, osmolarity 298 mOsm) supplemented with 5 µM nifedipine. Single-hole, low-resistance chips (3–5 MΩ) were used. The intracellular solution contained (in mM) 10 KCl, 110 KF, 10 NaCl, 1 MgCl2, 1 CaCl2, 10 Ethylene Glycol Tetra-acetic Acid (EGTA), and 10 HEPES (pH 7.2, osmolarity 280 mOsm). Currents were recorded and analysed as previously described for stable cell lines.
# [2] = tested on: adult rat ventricular myocytes; assay type: cell-based
# [3] = tested on: adult rat ventricular cardiomyocytes; test: Calcium imaging (SCR events) in isolated rat cardiomyocytes; assay type: cell-based
# Protocol: Eleven-week-old Wistar Han rats were euthanized by intraperitoneal (i.p.) injection of a lethal dose of pentobarbital (140 mg/kg, Euthasol®). Subsequently, the hearts were quickly excised and rinsed in cold calcium-free Tyrode solution with the following composition (in mM): 118 NaCl, 4.17 KCl, 1.2 MgSO4, 1.2 KH2PO4, 21 NaHCO3, 11 glucose, and 5 taurine, at pH 7.4. The aorta was promptly cannulated, and the hearts were perfused in a retrograde fashion with warm (37–38°C) Tyrode containing 1.25 mM CaCl2 to flush the coronary arteries of blood and then with a Tyrode solution supplemented with 1 mg/mL collagenase type 2 (Worthington Biochemical Corp, Lakewood, NJ) and 0.2 U.mL^−1 protease type XIV (Sigma, Poole, UK) during 15–20 min. Once enzymatic digestion is completed, ventricles were shredded into small pieces with surgical scissors in 0.5 mM Ca^2+ Tyrode solution, filtered through a 200-µm mesh, and then resuspended in 1 mM Ca^2+ Tyrode solution for 1 h at RT. Isolated cardiomyocytes were incubated in the dark with Fura-2-AM calcium probe (2 µM in 20% v/v DMSO; Life Technologies) for 15 min. Cardiomyocytes were then loaded onto the IonOptix system (IonOptix Corporation, U.S.A.) and perfused with warm (37°C) Tyrode solution. Cardiomyocytes were stimulated at 0.5 Hz using a MyoPacer field stimulator (20 V, 7 ms) to achieve steady state. Fura-2 fluorescence (F) at 510 nm was used to measure cytoplasmic Ca^2+ concentration variation by exciting with UV light at 340 and 380 nm. Cells were paced for 1 to 2 min, ensuring stabilization of the signals, and the effects of the peptides were measured at the end of a 5 min application time. 30-s-long periods were used as the unit duration (representing 15 Ca^2+ transients) during control and after the perfusion of the compound to count the number of arrhythmogenic transients.
# isolated rat heart = test: Ex vivo cardiac electrophysiological recordings (Langendorff, MEA)
# Protocol: Eleven-week-old Wistar-Han rats were first heparinized (heparin sodium, 0.5 U/g i.p.) and then euthanized by i.p. injection of 140 mg/kg pentobarbital (Euthasol®). Hearts were quickly excised and immersed in a cold modified Krebs-Henseleit solution (in mM): 116 NaCl, 5 KCl, 1.1 MgSO4, 7 H2O, 0.35 NaH2PO4, 27 NaHCO3, 10 glucose, and pH 7.4. The aorta was cannulated, and the hearts were perfused on a Langendorff system with warm (36.5–37.5°C) and oxygenated (95% O2/5% CO2) Krebs-Henseleit solution supplemented with 1.8 mM CaCl2, 1 mM lactate, and 0.2 mM pyruvate (control solution) at a constant flow rate of 12 mL/min. Once connected to the Langendorff perfusion system, hearts were perfused with control solution for 10 min to stabilize their activities. Electrical activity of the upper part of the right ventricle was assessed using a 64-electrode array (0.2-mm electrode diameter; 0.36-mm interelectrode distance) connected to an EMS64-USB-1002 amplifier. Single-lead ECG was acquired to monitor global cardiac electrical activity. Data were sampled at 10 kHz per channel and acquired by EMapRecord5 (Mappinglab, Oxford, UK). Data were obtained at baseline (2 min before compound perfusion) and during AaH-II* perfusion for 10 min at various concentrations. Data were analysed using EMapScope5 (Mappinglab, Oxford, UK). Activation times were determined as the point of maximal negative slope. All activation times were related to the timing of the first detected waveform and then used to draw activation maps. An average of three complexes was used for activation time and conduction velocity analyses, while interbeat interval was measured as the average of 10 consecutive intervals. The index of inhomogeneity was calculated as previously described.[23] Arrhythmias were quantified over a period of 2 min in control and after peptide perfusion.
# Wistar-Han rats = assay type: in vivo, rat; settings: rat, in vivo, iv
# [4] = rat, in vivo, iv
# Chain of hNav1.6 (Q9UQD0 other isoform, or with tags, fused parts or gaps): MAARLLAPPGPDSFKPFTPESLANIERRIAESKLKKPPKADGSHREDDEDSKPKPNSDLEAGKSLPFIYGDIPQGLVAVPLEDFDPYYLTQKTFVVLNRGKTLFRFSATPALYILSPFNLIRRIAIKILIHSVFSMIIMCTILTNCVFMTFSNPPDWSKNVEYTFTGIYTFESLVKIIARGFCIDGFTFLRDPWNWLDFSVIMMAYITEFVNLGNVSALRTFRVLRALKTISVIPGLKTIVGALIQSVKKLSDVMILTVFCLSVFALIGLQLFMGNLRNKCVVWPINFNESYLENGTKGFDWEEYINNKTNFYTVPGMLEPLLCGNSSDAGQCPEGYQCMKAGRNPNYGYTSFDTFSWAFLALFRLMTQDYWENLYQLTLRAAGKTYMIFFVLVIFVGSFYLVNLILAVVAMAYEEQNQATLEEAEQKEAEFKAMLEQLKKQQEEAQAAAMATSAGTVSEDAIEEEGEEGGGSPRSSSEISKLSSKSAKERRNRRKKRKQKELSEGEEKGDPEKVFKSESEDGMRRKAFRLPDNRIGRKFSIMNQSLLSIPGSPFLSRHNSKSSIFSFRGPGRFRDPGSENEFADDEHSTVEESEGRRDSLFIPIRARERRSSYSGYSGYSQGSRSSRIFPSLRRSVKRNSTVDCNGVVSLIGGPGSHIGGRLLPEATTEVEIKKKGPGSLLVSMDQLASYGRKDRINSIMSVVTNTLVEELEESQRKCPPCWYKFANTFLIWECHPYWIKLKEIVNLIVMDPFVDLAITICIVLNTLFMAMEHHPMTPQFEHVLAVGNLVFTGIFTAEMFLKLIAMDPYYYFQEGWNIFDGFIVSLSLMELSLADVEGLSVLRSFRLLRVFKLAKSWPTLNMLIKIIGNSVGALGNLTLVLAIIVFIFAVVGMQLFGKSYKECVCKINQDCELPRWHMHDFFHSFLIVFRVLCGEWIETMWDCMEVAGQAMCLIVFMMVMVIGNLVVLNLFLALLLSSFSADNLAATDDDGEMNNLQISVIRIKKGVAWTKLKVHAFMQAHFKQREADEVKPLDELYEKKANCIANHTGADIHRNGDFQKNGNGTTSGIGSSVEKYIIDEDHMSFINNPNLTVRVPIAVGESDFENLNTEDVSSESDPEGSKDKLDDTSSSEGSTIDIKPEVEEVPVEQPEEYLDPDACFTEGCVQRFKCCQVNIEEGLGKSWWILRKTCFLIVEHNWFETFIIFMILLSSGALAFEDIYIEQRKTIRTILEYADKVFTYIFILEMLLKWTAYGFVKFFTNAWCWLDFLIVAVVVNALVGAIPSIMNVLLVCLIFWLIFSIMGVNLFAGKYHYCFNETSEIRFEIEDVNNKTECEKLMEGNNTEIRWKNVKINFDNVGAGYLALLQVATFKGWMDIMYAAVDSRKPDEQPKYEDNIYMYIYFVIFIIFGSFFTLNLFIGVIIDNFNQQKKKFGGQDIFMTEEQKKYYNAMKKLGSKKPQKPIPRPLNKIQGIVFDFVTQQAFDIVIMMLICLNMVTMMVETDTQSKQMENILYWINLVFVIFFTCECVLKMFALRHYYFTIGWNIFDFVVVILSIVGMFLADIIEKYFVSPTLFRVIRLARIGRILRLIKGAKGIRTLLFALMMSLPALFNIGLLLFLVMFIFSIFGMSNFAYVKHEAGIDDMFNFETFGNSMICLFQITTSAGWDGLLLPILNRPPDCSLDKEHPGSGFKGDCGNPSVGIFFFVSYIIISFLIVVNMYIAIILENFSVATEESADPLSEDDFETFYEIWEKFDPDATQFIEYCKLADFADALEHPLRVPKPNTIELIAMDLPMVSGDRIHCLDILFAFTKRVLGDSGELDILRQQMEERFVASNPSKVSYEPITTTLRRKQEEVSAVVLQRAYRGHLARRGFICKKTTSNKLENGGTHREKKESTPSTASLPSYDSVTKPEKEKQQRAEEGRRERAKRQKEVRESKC
smiles,measurement,setting,value
"NC1=N[C@H](O)[C@H]2[C@H]3O[C@]4(O)O[C@@H]([C@@H](O)[C@@]2(N1)[C@@H]4O)[C@]3(O)CO [TTX, tetrodotoxin]",block of AaH-II*-modified hNav1.6 currents,hNav1.6,complete block of hNav1.6 currents
same,block of AaH-II*-triggered INaL,[1],entirely blocked; also recorded: fully blocked
same,block of AaH-II* responses,[2],blocked
same,calcium transient amplitude and time to peak,[3],reduce the amplitude and increase the time to peak of regular calcium transients moderately
same,cells presenting SCR events (SCR cells / cells),[3],does not by itself trigger the appearance of SCR events
same,interbeat interval (bradycardia),isolated rat heart,small bradycardic effect
same,ventricular conduction velocity / activation time,isolated rat heart,unaffected; also recorded: does not affect ventricular conduction velocity
same,P wave,Wistar-Han rats,16.3 ± 1.4 ms
same,PR,Wistar-Han rats,48.5 ± 3.3 ms
same,QRS,Wistar-Han rats,18.2 ± 0.7 ms
same,QTc,Wistar-Han rats,45.9 ± 2.2
same,RR,Wistar-Han rats,194.7 ± 9.3 ms
same,RR interval,Wistar-Han rats,increases the RR interval progressively with increasing doses
same,T wave area,Wistar-Han rats,1.1 ± 0.1 mV/ms
same,arrhythmic rats (rats / all rats),Wistar-Han rats,clearly non-arrhythmic
same,circulating plasmatic concentration,[4],403 ± 44 nM
